Results published in patent publication US8961759B2, “Device and method for mitochondrial membrane potential assessment” (priority 2011, dated 2015).

Experiments:
[1] = test system: human mitochondria (Heb7A); test: Mitochondrial membrane potential assay with sensor device 1000, substrates and inhibitors added (FIG. 12); format: cell-based; settings: isolated Heb7A mitochondria in respiration buffer, about 10 μM TPP+, sequential additions
Method: The voltmeter was linked to the computer via a GPIB interface (National Instrument, GPIB-USB-HS) for data communication. The voltage signal from the voltmeter was acquired using Labview software, so that simultaneous monitoring of the mitochondrial membrane potential could be achieved.
The evaluation of the mitochondrial membrane potential was performed with human mitochondria (Heb7A) in respiration buffer (225 mM mannitol, 75 mM sucrose, 10 mM KCl, 10 mM Tris-HCl, 5 mM KH2PO4, pH 7.2). The measurements were repeated 4 times with freshly prepared mitochondria to confirm the performance and the reproducibility of the sensor. […] 25 ng of isolated mitochondria in 85 μL was used for the test resulting in a final concentration of 0.29 ng/μL.
FIG. 11 illustrates an image of a complete sensor device 1000 showing the reference electrode 1015 and working electrode 1016 with arrows. The sensing chamber was filled with an initial volume of 71 μL respiration buffer. Once the plot baselined to zero, a 100 μM TPP^+Cl^− solution was added to provide a working concentration. The working concentration of TPP^+ was kept at about 10 μM to prevent inhibition of respiration. After stabilization, isolated mitochondria (5 ng μL/1) were added to the sensing chamber 1011.

[2] = compared with DDA+; cited from earlier work
[3] = value given for Equation 3; cited from earlier work

SMILES | change in the magnitude of ΔΨm after addition [1] | diffusion coefficient through mitochondrial membranes relative to other cations such as DDA+ [2] [times faster] | partition coefficient, binding to the external face of the inner membrane (Ko) [3] [µL/mg]
O=C(O)CCC(=O)O [succinate] | increase the magnitude of ΔΨm |  | 
c1ccc([P+](c2ccccc2)(c2ccccc2)c2ccccc2)cc1 [TPP^+, tetraphenylphosphonium] |  | 15 | 14.3
O=C(O)CC(=O)O [malonate] | slow decrease in the magnitude of ΔΨm |  | 
C=C(C)[C@H]1Cc2c(ccc3c2O[C@@H]2COc4cc(OC)c(OC)cc4[C@@H]2C3=O)O1 [Rot] | slow decline in the magnitude of ΔΨm |  | 
